Laboratory results from article PMC12655351, “Synthesis and Anticancer Activity Evaluation of New 5-((5-Nitrofuran-2-yl)allylidene)-2-thioxo-4-thiazolidinones” (Pharmaceuticals, 2025).

Legend:
[1] = system: caspase-9 in MDA-MB-231 cells; test: FLICA caspase-9 flow cytometry; assay type: cell-based, human; settings: MDA-MB-231, 24 h, concentration not given
Description: To further analyze the compounds’ effects on the intrinsic pathway of the process of programmed cell death, it was decided to assess the expression of initiator caspase-9 on MCF-7 and MDA-MB-231 cell lines after 24 h of treatment using the flow cytometry method. Caspase-9 is an initiator caspase that directly activates executive caspase-3; as such, it has a significant effect on apoptosis. […] For the MDA-MB-231 line, the results were even more prominent, with every tested compound and concentration displaying a notable increase in cells with active caspase-9.
To determine the effects of the novel compounds on the caspase-9 activity, the FLICA Caspase-9 Assay Kit was applied (ImmunoChemistry Technologies, Bloomington, MN, USA). MCF-7 and MDA-MB-231 cells were seeded on 6-well plates (5 × 10^5 cells per well) and incubated for 24 h. Next, they were treated with tested compounds 2b, 12b, and 14b in a concentration of 1 and 5 µM for the MCF-7 cell line and 5 and 10 µM for the MDA-MB-231 cell line and the reference drug, doxorubicin hydrochloride, in a concentration of 1 and 5 µM for both lines for 24 h. […] Prepared samples were evaluated by a BD FACSCanto II flow cytometer (Becton Dickinson Biosciences, San Jose, CA, USA). For each sample, 1 × 10^4 events were analyzed. […]

U251 = settings: human, 48 h
[2] = system: reactive oxygen species in MDA-MB-231 cells; test: H2DCFDA and DAPI double staining; assay type: cell-based, human; settings: MDA-MB-231, 5 and 10 μM, one hour
Description: (§1) The double staining method was applied to analyze novel compounds’ effects on the generation of reactive oxygen species. The first dye, H2DCFDA, after conversion to DCF, serves as an indicator of oxidative stress (green fluorescence), while the second one, known as DAPI, was applied to showcase nuclear genetic material of MCF-7 and MDA-MB-231 breast cancer cells (blue fluorescence). The concentrations of compounds were 1 and 5 μM for the MCF-7 cell line and 5 and 10 μM for the MDA-MB-231 cell line. The incubation time after treatment was one hour in both cell lines.
(§2) The influences of 2b, 12b, 14b, and doxorubicin (1 and 5 µM and 5 and 10 µM for MCF-7 and MDA-MB-231 cell lines, respectively) on the generation of reactive oxygen species (ROS) were analyzed. Cells were seeded in 6-well culture plates at 1 × 10^5 cells per well in 1 mL of medium and then treated with compounds for 1 h and then washed with PBS. Double staining was conducted with 20 µM 2′,7′-dichlorodihydrofluorescein diacetate (H2DCFDA) reagent (Thermo Fisher Scientific, Eugene, OR, USA), which is colorless, and is cleaved by intracellular esterases and oxidized to the highly fluorescent 2′,7′-dichlorofluorescein (DCF), and 10 µg/mL of the fluorescent dye 4′,6-diamidino-2-phenylindole (DAPI) (Sigma-Aldrich, St. Louis, MO, USA), which visualizes the nuclear DNA of cells. A Nikon ECLIPSE Ti fluorescence microscope (Nikon, Tokyo, Japan) was used to obtain results which were analyzed using ImageJ software 1.54k (Bethesda, MD, USA). The fluorescence intensity of the DCF reagent was evaluated relative to the control. The number of analyzed cells was above 100.

[3] = system: reactive oxygen species in MCF-7 cells; test: H2DCFDA and DAPI double staining; assay type: cell-based, human; settings: MCF-7, 1 and 5 μM, one hour
Description: as §1, §2

[4] = system: cytochrome C in MCF-7 cells; test: cytochrome C ELISA; assay type: cell-based, human; settings: MCF-7, 5 μM, 24 h
Description: (§3) The influence of the examined compounds on the level of cytochrome C, one of the crucial proteins of the intrinsic pathway of programmed cell death, was assessed. This protein is released into the cytoplasm from the mitochondrial intermembrane space as a result of the decrease in mitochondrial membrane potential. […] The most significant result was reported for compound 14b at a concentration of 5 μM in the MCF-7 cell line and 10 µM in the MDA-MB-231 cell line, where the concentration of cytochrome C was 9.54 ng/mL and 15.26 ng/mL, respectively (Figure 10).
(§4) Using a SimpleStep ELISA kit (Abcam, Cambridge, UK), we determined the levels of cytochrome C and caspase-3 in cells’ lysates with 2b, 12b, and 14b (1 and 5 μM for the MCF-7 cell line and 5 and 10 μM for the MDA-MB-231) and doxorubicin in concentrations of 1 and 5 μM for both lines after 24 h incubation. Assays were performed according to the manufacturer’s protocols.

[5] = system: cytochrome C in MDA-MB-231 cells; test: cytochrome C ELISA; assay type: cell-based, human; settings: MDA-MB-231, 10 μM, 24 h
Description: as §3, §4

[6] = system: mitochondrial membrane potential (ΔΨm) of MCF-7 breast cancer cells; test: JC-1 flow cytometry; assay type: cell-based, human; settings: 24 h
Description: (§5) This method involves marking cells with fully functional mitochondria with red fluorescence due to the accumulation of the dye in hyperpolarized mitochondrial membrane. In case of a damaged membrane, the dye decomposes into monomers, emitting green fluorescence. […] For MDA-MB-231 cells, the values were as follows: 4.25% for 5 μM and 20.95% for 10 μM concentration. The obtained results signify the compound’s capability to decrease mitochondrial potential on both cell lines at a higher concentration (Figure 6).
(§6) The mitochondrial membrane potential (ΔΨm) was analyzed by using the JC-1 MitoScreen kit (BD Biosciences, San Diego, CA, USA). The tested compounds and reference drug were used in 1 and 5 µM concentrations on the MCF-7 cell line and 5 and 10 µM on the MDA-MB-231 cell line. After 24 h of incubation with the tested compounds, the assay was performed as described in the literature. The assay was performed using a flow cytometer (BD FACSCanto II, Becton Dickinson Biosciences Systems, San Jose, CA, USA), and results were obtained using FACSDiva software (version 6.1.3, BD Biosciences Systems, San Jose, CA, USA).

[7] = system: mitochondrial membrane potential (ΔΨm) of MDA-MB-231 breast cancer cells; test: JC-1 flow cytometry; assay type: cell-based, human; settings: 24 h
Description: as §5, §6

M14 = settings: human, 48 h
HOP-92 = settings: human, 48 h

CC(C(=O)O)N1C(=O)/C(=C/C=C/c2ccc([N+](=O)[O-])o2)SC1=S (stereo not drawn) [2b, 2-((Z)-5-((E)-3-(5-Nitrofuran-2-yl)allylidene)-4-oxo-2-thioxothiazolidin-3-yl)propanoic acid]
cells with active caspase-9 [1]: 83.95%

O=C(O)CCCCCN1C(=O)/C(=C/C=C/c2ccc([N+](=O)[O-])o2)SC1=S [14b, 6-((Z)-5-((E)-3-(5-nitrofuran-2-yl)allylidene)-4-oxo-2-thioxothiazolidin-3-yl)hexanoic acid]
CC50 (U251): 5.02 µM | generation of reactive oxygen species [2]: highest generation of ROS | generation of reactive oxygen species [3]: highest generation of ROS | concentration of cytochrome C [4]: 9.54 ng/mL | concentration of cytochrome C [5]: 15.26 ng/mL | Decreased Δψ (decrease in mitochondrial potential) ([6]; MCF-7, 1 μM): 8.75% | Decreased Δψ (decrease in mitochondrial potential) ([6]; MCF-7, 5 μM): 20.25% | Decreased Δψ (decrease in mitochondrial potential) ([7]; MDA-MB-231, 5 μM): 4.25% | Decreased Δψ (decrease in mitochondrial potential) ([7]; MDA-MB-231, 10 μM): 20.95% | CC50 (M14): 3.23 µM | CC50 (HOP-92): 5.84 µM
